Our source for the Kd and Ki values is patent US8710065B2, “Tricyclic inhibitors of kinases” (AbbVie Inc., priority 2011, dated 2014).

SMILES strings stand for the structures.

T1 sequence (P30291 whole entry): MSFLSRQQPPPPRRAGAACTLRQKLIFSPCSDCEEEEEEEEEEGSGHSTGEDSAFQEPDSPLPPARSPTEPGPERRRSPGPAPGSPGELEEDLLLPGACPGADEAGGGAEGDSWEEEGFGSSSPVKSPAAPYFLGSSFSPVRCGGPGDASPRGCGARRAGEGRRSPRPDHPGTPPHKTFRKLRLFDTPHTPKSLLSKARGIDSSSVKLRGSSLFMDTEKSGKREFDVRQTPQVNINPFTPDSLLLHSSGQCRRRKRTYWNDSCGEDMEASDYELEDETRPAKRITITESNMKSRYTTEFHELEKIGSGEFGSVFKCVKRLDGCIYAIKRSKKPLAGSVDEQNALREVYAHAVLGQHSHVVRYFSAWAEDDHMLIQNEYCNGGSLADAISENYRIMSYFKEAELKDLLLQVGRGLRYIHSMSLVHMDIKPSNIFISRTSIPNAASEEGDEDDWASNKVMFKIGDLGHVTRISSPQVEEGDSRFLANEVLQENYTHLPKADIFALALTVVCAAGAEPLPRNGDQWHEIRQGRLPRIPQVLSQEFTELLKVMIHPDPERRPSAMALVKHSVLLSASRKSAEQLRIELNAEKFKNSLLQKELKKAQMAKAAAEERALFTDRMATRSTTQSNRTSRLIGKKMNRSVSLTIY

The first test addresses T1, GST-tagged-Wee1 kinase (Homo sapiens, UniProt P30291).
T1 construct: purchased Carnabio (Carna Biosciences) 05-177
As to the kind of experiment: Wee1 time-resolved fluorescence equilibrium binding assay (displacement of Oregon Green-labeled ATP-competitive kinase probe).
Details: not given
The gist of the method: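 Ki values derive from competitive displacement, under equilibrium, of a fast-reversible ATP-site Oregon Green kinase probe from GST-tagged Wee1, detected by time-resolved fluorescence.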
One may read the Kd as the constant that tells how readily two partners part at equilibrium. As to `O=C(NCCOCCOCCN1CCN(c2ccc(-c3cc4c(-c5cnc(C6(O)CCC6)s5)c(Cl)cnc4[nH]3)cc2)CC1)c1ccc2c(c1)C(=O)OC21c2cc(F)c(O)cc2Oc2cc(O)c(F)cc21` [fluorescent probe, N-(2-(2-(2-(4-(4-(5-chloro-4-(2-(1-hydroxycyclobutyl)thiazol-5-yl)-1H-pyrrolo[2,3-b]pyridin-2-yl)phenyl)piperazin-1-yl)ethoxy)ethoxy)ethyl)-2′,7′-difluoro-3′,6′-dihydroxy-3-oxo-3H-spiro[isobenzofuran-1,9′-xanthene]-5-carboxamide, reference compound], the dissociation constant (Kd) is 137 nM.

Staying with this test, now noted: read-out: Wee-1 inhibition (Ki).
A word on the Ki: it is a dissociation constant, usually derived from enzyme kinetics or from competition with a known ligand. Consider `Cc1cc(Nc2ncc3c(=O)n(-c4c(Cl)cccc4Cl)c4nccn4c3n2)ccc1N1CCCNCC1` [Example 345, 2-{[4-(1,4-diazepan-1-yl)-3-methylphenyl]amino}-6-(2,6-dichlorophenyl)imidazo[1,2-a]pyrimido[5,4-e]pyrimidin-5(6H)-one], for which the Ki is 10 to 100 nM.
Still for that read-out and setting: as for `CC(C)n1c(=O)c2cnc(Nc3ccc(N4CCN(C)CC4)cc3)nc2n2ccnc12` [Example 346, 2-{[4-(4-methylpiperazin-1-yl)phenyl]amino}-6-(propan-2-yl)imidazo[1,2-a]pyrimido[5,4-e]pyrimidin-5(6H)-one], the figure is 10 to 100 nM.
The same measure, in the same setting: as for `CN1CCN(c2c(F)cc(Nc3ncc4c(=O)n(-c5ccccc5Cl)c5nccn5c4n3)cc2F)CC1` [Example 347, 6-(2-chlorophenyl)-2-{[3,5-difluoro-4-(4-methylpiperazin-1-yl)phenyl]amino}imidazo[1,2-a]pyrimido[5,4-e]pyrimidin-5(6H)-one], the figure is greater than 100 nM.
The same measure, in the same setting: as for `O=c1c2cnc(Nc3ccc(C(F)(F)F)cc3)nc2n2ccnc2n1-c1ccccc1Cl` [Example 348, 6-(2-chlorophenyl)-2-{[4-(trifluoromethyl)phenyl]amino}imidazo[1,2-a]pyrimido[5,4-e]pyrimidin-5(6H)-one], the figure is greater than 100 nM.
`O=c1c2cnc(Nc3ccc(-c4cscn4)cc3)nc2n2ccnc2n1-c1ccccc1Cl` [Example 349, 6-(2-chlorophenyl)-2-{[4-(1,3-thiazol-4-yl)phenyl]amino}imidazo[1,2-a]pyrimido[5,4-e]pyrimidin-5(6H)-one]: the Ki was in the range of 10 to 100 nM.
Consider `O=c1c2cnc(Nc3ccc(-c4nccs4)cc3)nc2n2ccnc2n1-c1ccccc1Cl` [Example 350, 6-(2-chlorophenyl)-2-{[4-(1,3-thiazol-2-yl)phenyl]amino}imidazo[1,2-a]pyrimido[5,4-e]pyrimidin-5(6H)-one], for which the Ki is 10 to 100 nM.
With `O=c1c2cnc(Nc3ccc(-c4ccc5cccnc5n4)cc3)nc2n2ccnc2n1-c1ccccc1Cl` [Example 351, 6-(2-chlorophenyl)-2-{[4-(1,8-naphthyridin-2-yl)phenyl]amino}imidazo[1,2-a]pyrimido[5,4-e]pyrimidin-5(6H)-one], the Ki lay within 10 to 100 nM.
With `O=c1c2cnc(Nc3ccc(N4CCC[C@H]4C(F)(F)F)cc3)nc2n2ccnc2n1-c1ccccc1Cl` [Example 352, 6-(2-chlorophenyl)-2-({4-[(2S)-2-(trifluoromethyl)pyrrolidin-1-yl]phenyl}amino)imidazo[1,2-a]pyrimido[5,4-e]pyrimidin-5(6H)-one], the Ki lay in the range of 10 to 100 nM.
Still for that read-out and setting: for `CN1CCN(c2c(Cl)cc(Nc3ncc4c(=O)n(-c5ccccc5Cl)c5nccn5c4n3)cc2C(F)(F)F)CC1` [Example 353, 2-{[3-chloro-4-(4-methylpiperazin-1-yl)-5-(trifluoromethyl)phenyl]amino}-6-(2-chlorophenyl)imidazo[1,2-a]pyrimido[5,4-e]pyrimidin-5(6H)-one] the value was greater than 100 nM.
Same read-out and setting: for `O=c1c2cnc(Nc3cc(Cl)c(N4CCNCC4)c(C(F)(F)F)c3)nc2n2ccnc2n1-c1ccccc1Cl` [Example 354, 6-(2-chlorophenyl)-2-{[3-chloro-4-(piperazin-1-yl)-5-(trifluoromethyl)phenyl]amino}imidazo[1,2-a]pyrimido[5,4-e]pyrimidin-5(6H)-one] the value was greater than 100 nM; for `CN1Cc2cc(Nc3ncc4c(=S)n(-c5ccccc5Cl)c5nccn5c4n3)ccc2C2(CC2)C1` [Example 355, 6-(2-chlorophenyl)-2-[(2′-methyl-2′,3′-dihydro-1′H-spiro[cyclopropane-1,4′-isoquinolin]-7′-yl)amino]imidazo[1,2-a]pyrimido[5,4-e]pyrimidine-5(6H)-thione], less than 10 nM; for `CC1(C)CN(Cc2ccccc2C#N)Cc2cc(Nc3ncc4c(=O)n(-c5ccccc5Cl)c5nccn5c4n3)ccc21` [Example 356, 2-{[7-{[6-(2-chlorophenyl)-5-oxo-5,6-dihydroimidazo[1,2-a]pyrimido[5,4-e]pyrimidin-2-yl]amino}-4,4-dimethyl-3,4-dihydroisoquinolin-2(1H)-yl]methyl}benzonitrile], 10 to 100 nM.
With `CCCOc1ccc(CN2Cc3cc(Nc4ncc5c(=O)n(-c6ccccc6Cl)c6nccn6c5n4)ccc3C(C)(C)C2)cc1` [Example 357, 6-(2-chlorophenyl)-2-{[4,4-dimethyl-2-(4-propoxybenzyl)-1,2,3,4-tetrahydroisoquinolin-7-yl]amino}imidazo[1,2-a]pyrimido[5,4-e]pyrimidin-5(6H)-one], the Ki was 10 to 100 nM.
Still for that read-out and setting: as for `CC1(C)CN(Cc2cc(F)cc(C(F)(F)F)c2)Cc2cc(Nc3ncc4c(=O)n(-c5ccccc5Cl)c5nccn5c4n3)ccc21` [Example 358, 6-(2-chlorophenyl)-2-({2-[3-fluoro-5-(trifluoromethyl)benzyl]-4,4-dimethyl-1,2,3,4-tetrahydroisoquinolin-7-yl}amino)imidazo[1,2-a]pyrimido[5,4-e]pyrimidin-5(6H)-one], the figure is 10 to 100 nM; as for `C[C@@H]1CCCN1CCc1ccc(Nc2ncc3c(=O)n(-c4ccccc4Cl)c4nccn4c3n2)cc1` [Example 359, 6-(2-chlorophenyl)-2-[(4-{2-[(2R)-2-methylpyrrolidin-1-yl]ethyl}phenyl)amino]imidazo[1,2-a]pyrimido[5,4-e]pyrimidin-5(6H)-one], 10 to 100 nM; as for `O=c1c2cnc(Nc3ccc(-c4csc(N5CCOCC5)n4)cc3)nc2n2ccnc2n1-c1ccccc1Cl` [Example 360, 6-(2-chlorophenyl)-2-({4-[2-(morpholin-4-yl)-1,3-thiazol-4-yl]phenyl}amino)imidazo[1,2-a]pyrimido[5,4-e]pyrimidin-5(6H)-one], 10 to 100 nM.
For the compound `Cc1ccc2nc(CCc3ccc(Nc4ncc5c(=O)n(-c6ccccc6Cl)c6nccn6c5n4)cc3)ccc2c1` [Example 361, 6-(2-chlorophenyl)-2-({4-[2-(6-methylquinolin-2-yl)ethyl]phenyl}amino)imidazo[1,2-a]pyrimido[5,4-e]pyrimidin-5(6H)-one], the Ki was 10 to 100 nM.
